Measured values from patent US20190351006A1, “METHODS OF ADMINISTRATION OF NMDA RECEPTOR AGONISTS” (Naurex Inc., priority 2017, published 2019).
Peptide text beside a SMILES is read from it.

Assays:
C57BL/6J mice = test: In vivo microdialysis of neurotransmitter efflux in mPFC and HIP; design: species or system Male C57BL/6J mice; details: rapastinel 1 mg/kg subcu, ketamine 30 mg/kg
Description: (§1) Animals: Male C57BL/6J mice 22-25 g (21/2 to 3 month old) were used is these studies. Drugs: Rapastinel was obtained from SAI Life Sciences (India). Rapastinel, PCP, and ketamine were dissolved in 0.9% sterile saline (Sal). PCP and ketamine were administered intraperitoneally (ip), at a volume of 10 mL/kg body weight. Rapastinel was given subcutaneously (subcu), and rapamycin was given intracerebroventricularly (icy). Drug Treatments: Male C57BL/6J mice were randomly assigned to treatment groups of 10 per group. To develop the cognitive deficit, groups of 10 mice were treated with PCP (10 mg/kg i.p., twice a day for 7 days) followed by a 7-day washout period. Following the washout period, the subchronic PCP mice were tested to determine that an NOR deficit had been established. See Rajagopal et al 3,4. See FIG. 7, for treatment schedules. Behavior, in vivo Microdialysis (MD) and ICV Procedures—The procedures have been described in detail in References 3,10,11,12,13. See FIG. 7. for pictorial representations of drug treatment protocols. Rapastinel's ability to restore episodic memory (NOR) and cognitive flexibility (RL), like its antidepressant action in rodents, is mTOR dependent as indicated by blockade by ICV rapamycin. […]

scPCP-treated mice [1] = test: Novel object recognition (NOR) in subchronic PCP (scPCP) mice; type: in vivo, Male C57BL/6J mice
Description: Animals: Male C57BL/6J mice 22-25 g (21/2 to 3 month old) were used is these studies. Drugs: Rapastinel was obtained from SAI Life Sciences (India). Rapastinel, PCP, and ketamine were dissolved in 0.9% sterile saline (Sal). PCP and ketamine were administered intraperitoneally (ip), at a volume of 10 mL/kg body weight. Rapastinel was given subcutaneously (subcu), and rapamycin was given intracerebroventricularly (icy). Drug Treatments: Male C57BL/6J mice were randomly assigned to treatment groups of 10 per group. To develop the cognitive deficit, groups of 10 mice were treated with PCP (10 mg/kg i.p., twice a day for 7 days) followed by a 7-day washout period. Following the washout period, the subchronic PCP mice were tested to determine that an NOR deficit had been established. See Rajagopal et al 3,4. See FIG. 7, for treatment schedules. Behavior, in vivo Microdialysis (MD) and ICV Procedures—The procedures have been described in detail in References 3,10,11,12,13. See FIG. 7. for pictorial representations of drug treatment protocols. Rapastinel's ability to restore episodic memory (NOR) and cognitive flexibility (RL), like its antidepressant action in rodents, is mTOR dependent as indicated by blockade by ICV rapamycin. […] Increase in cortical DA efflux, in transient and subchronic rescue by rapastinel, may be important for triggering neuroplastic changes in AMPAR modulation of the activity of principal neurons in mPFC and HIP.

scPCP-treated mice [2] = test: Reversal learning (RL) task in subchronic PCP mice; type: in vivo, Male C57BL/6J mice
Description: as §1

[3] = PCP 10 mg/kg i.p. twice a day for 7 days, then 7-day washout

Row | Compound | Neurotransmitter efflux in mPFC (C57BL/6J mice) | DI in NOR vs vehicle-treated mice (scPCP-treated mice [1]; [3]) | Percent correct responses in RL vs veh-treated mice (scPCP-treated mice [2]; [3]) | Duration of rescue of NOR deficit after subchronic rapastinel, 5 days (scPCP-treated mice [1]; scPCP mice, 1 mg/kg sc, b.i.d. for 5 days) | NOR deficit (DI), acute rapastinel (scPCP-treated mice [1]; scPCP mice, 1 mg/kg subcu, 30 min before AT) | Reversal of scPCP-induced NOR deficit, 5 day vs 3 day treatment (scPCP-treated mice [1]; scPCP mice, 1 mg/kg subcu, b.i.d. for 5 days) | NOR after a single acute dose once the subchronic effect had ended (scPCP-treated mice [1]; scPCP mice, single dose 1 mg/kg sc, 30 min prior to AT, week 10 (or week 11)) | RL deficit (percent correct responses), acute rapastinel (scPCP-treated mice [2]; scPCP mice, 1 mg/kg sc, 30 min before reversal phase of the RL task)
1 | CNC1(c2ccccc2Cl)CCCCC1=O (stereo not drawn) [Ketamine, ketamine, reference compound] | very large increases in the efflux of ACh, DA, 5-HT, DOPAC, 5-HIAA, and glutamate, and serine |  |  |  |  |  |  | 
2 | c1ccc(C2(N3CCCCC3)CCCCC2)cc1 [PCP, reference compound] |  | reduced DI | reduced percent correct responses |  |  |  |  | 
3 | C[C@@H](O)[C@H](N)C(=O)N1CCC[C@H]1C(=O)N1CCC[C@H]1C(=O)N[C@H](C(N)=O)[C@@H](C)O [rapastinel] (H-TPPT-NH2) | small selective increase in DA efflux |  |  | at least 10 weeks | rescued NOR deficit | longer compared to 3 day treatment | restored NOR | rescued RL deficit
